Experiments:
[1] = system: human pancreatic cancer cell line (MIA-PaCa-2); assay: Cytostatic activity against human pancreatic cancer cell line (WST-1); assay type: cell-based; settings: at a concentration of 10 μmol/L, 72 hours, read-out: growth inhibitory activity
Procedure: The cytostatic rate of Compound (I) against a human pancreatic cancer cell line (MIA-PaCa-2) was measured according to the following procedure.
MIA-PaCa-2 cells were cultured in a minimum essential medium (MEM) (GIBCO) containing a 10% fetal calf serum (FCS).
Each well of a TC Microwell 96F plate (Nalge Nunc) was inoculated with 50 μL of MIA-PaCa-2 cells at a density of 1000 cells/well, and the cells were incubated at 37° C. for 24 hours in a 5% carbon dioxide gas incubator. To each well, 50 μL of a solution containing a test compound prepared by stepwise dilution with the incubation medium of the respective cells was added and the resulting mixture was again incubated at 37° C. for 72 hours in a 5% carbon dioxide gas incubator. To each well, 10 μL of a WST-1 reagent (4-[3-(4-iodophenyl)-2-(4-nitrophenyl)-2H-5-tetrazolio]-1,3-benzene disulfonate sodium salt) (Roche Diagnostics K. K.) was added, followed by incubation at 37° C. for 2 hours and analysis with a microplate spectrometer, SpectraMax 340PC (Molecular Devices) to determine the absorbance at 450 nm (reference wavelength: 690 nm). The cytostatic rate was determined from the equation below by assuming the absorbance of the well containing cells similarly cultured by adding a solvent of the test compound solution to be 100%. Furthermore, the observed absorbance of a blank to which WST-1 was added immediately after addition of the solvent was used.

Aurora A protein = molecular target: T1, Aurora A protein (Homo sapiens, UniProt O14965); assay: Aurora A inhibitory activity (IMAP); assay type: biochemical; settings: at a concentration of 1 μmol/L; 10 μmol/L ATP
T1 construct: purchased Carna Biosciences
T1 sequence (O14965 1-403): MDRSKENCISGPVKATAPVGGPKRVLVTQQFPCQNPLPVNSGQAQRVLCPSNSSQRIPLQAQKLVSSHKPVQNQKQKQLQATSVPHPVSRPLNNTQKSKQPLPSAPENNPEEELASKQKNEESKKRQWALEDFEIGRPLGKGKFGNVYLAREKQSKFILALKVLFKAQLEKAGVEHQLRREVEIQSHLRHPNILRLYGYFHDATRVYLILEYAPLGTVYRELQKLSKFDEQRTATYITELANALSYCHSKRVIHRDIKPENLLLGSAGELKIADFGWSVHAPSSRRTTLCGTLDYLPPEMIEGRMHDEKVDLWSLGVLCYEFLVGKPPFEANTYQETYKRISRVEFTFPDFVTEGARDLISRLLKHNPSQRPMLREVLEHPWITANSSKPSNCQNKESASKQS
Procedure: The following procedure was employed to measure the Aurora A inhibitory activity.
(§1) A 20 μL sample containing Aurora A protein (Carna Biosciences) at a final concentration of 0.35 mg/mL, 20 mmol/L HEPES (pH 7.4), 0.01% Tween-20, 2 mmol/L DTT, 100 nmol/L PKAtide, 1 mmol/L magnesium acetate, 10 μmol/L adenosine-5′-triphosphate (ATP), 1% dimethylsulfoxide (DMSO), and 1 μmol/L test compound was prepared and enzyme reaction was conducted at room temperature for 60 minutes. Phosphorylation reaction was detected by using IMAP Screening Express kit (Molecular Devices Corp., R8073).
(§2) While assuming the observed value of a control to which ATP was added to be 100% and the observed value of a control to which no ATP was added to be 0%, the relative activity (%) of the radio activity of a sample containing a test compound was calculated, and the difference between 100 and the obtained percentage value was assumed to be the Aurora A inhibitory rate (%) of that test compound.

Aurora B protein = molecular target: T2, Aurora B protein (Homo sapiens, UniProt Q96GD4); assay: Aurora B inhibitory activity (IMAP); assay type: biochemical; settings: at a concentration of 1 μmol/L; 10 μmol/L ATP
T2 construct: purchased Carna Biosciences
T2 sequence (Q96GD4 whole entry): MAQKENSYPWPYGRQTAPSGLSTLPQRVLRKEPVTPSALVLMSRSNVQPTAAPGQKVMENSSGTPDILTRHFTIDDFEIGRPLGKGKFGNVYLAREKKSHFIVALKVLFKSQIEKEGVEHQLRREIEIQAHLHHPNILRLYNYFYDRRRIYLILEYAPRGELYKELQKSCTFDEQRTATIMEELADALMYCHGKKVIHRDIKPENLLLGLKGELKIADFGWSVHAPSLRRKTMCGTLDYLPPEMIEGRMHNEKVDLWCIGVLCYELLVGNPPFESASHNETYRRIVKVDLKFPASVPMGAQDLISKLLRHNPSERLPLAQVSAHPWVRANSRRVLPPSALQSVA
T2 sequence (Q9NQS7 803-918 partner limits assumed): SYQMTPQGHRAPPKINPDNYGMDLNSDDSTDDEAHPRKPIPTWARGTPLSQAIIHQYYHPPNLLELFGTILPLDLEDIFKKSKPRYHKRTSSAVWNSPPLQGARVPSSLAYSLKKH
Procedure: The following procedure was employed to measure the Aurora B inhibitory activity.
as §1, with “Aurora B” for “Aurora A”, “of 0.3” for “of 0.35”, “nmol/L Histone H3,” for “nmol/L PKAtide,”, “μmol/L ATP,” for “μmol/L adenosine-5′-triphosphate (ATP),”, “1% DMSO,” for “1% dimethylsulfoxide (DMSO),”
as §2, with “Aurora B” for “Aurora A”

inhibition at 1 µM (Aurora A protein)	inhibition at 1 µM (Aurora B protein)	Structure (SMILES)	inhibition at 10 µM [1]
≥ 90%	≥ 90%	Nc1cc(/C=C/c2n[nH]c3ccccc23)ccc1OCCN1CCOCC1 [Compound 4]	≥ 50%
≥ 90%	≥ 90%	CC(=O)N1CCN(C(=O)c2ccc(/C=C/c3n[nH]c4ccccc34)cc2)CC1 [Compound 6]	≥ 50%
≥ 90%	≥ 90%	COCC(=O)N1CCN(C(=O)c2ccc(/C=C/c3n[nH]c4ccccc34)cc2)CC1 [Compound 7]	≥ 50%
